# Reference: ChEMBL document CHEMBL1127880, “1H-1,2,4-triazole angiotensin II receptor antagonists: N-phenylpyridinylmethyl and N-pyridinylphenylmethyl analogs of SC-50560” (Bioorg Med Chem Lett, 1994)
# How the values were obtained:
# Angiotensin II receptor = target: T1, Angiotensin II receptor (Rattus norvegicus, UniProt P29089+P25095+P35351); assay: Tested in vitro for inhibition of [125I]AII to rat uterine membranes; type: cell membranes, Membrane
# T1 sequence (P29089 whole entry): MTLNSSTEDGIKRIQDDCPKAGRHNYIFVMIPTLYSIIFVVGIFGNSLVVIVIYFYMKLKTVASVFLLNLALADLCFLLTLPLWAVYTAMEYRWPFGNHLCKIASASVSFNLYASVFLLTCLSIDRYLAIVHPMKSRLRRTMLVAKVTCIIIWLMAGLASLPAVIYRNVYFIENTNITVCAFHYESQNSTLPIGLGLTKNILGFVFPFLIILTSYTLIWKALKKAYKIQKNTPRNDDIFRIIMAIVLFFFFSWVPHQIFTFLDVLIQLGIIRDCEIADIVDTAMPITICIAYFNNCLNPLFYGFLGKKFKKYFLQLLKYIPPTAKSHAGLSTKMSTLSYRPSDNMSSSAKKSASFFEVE
# T1 sequence (P25095 whole entry): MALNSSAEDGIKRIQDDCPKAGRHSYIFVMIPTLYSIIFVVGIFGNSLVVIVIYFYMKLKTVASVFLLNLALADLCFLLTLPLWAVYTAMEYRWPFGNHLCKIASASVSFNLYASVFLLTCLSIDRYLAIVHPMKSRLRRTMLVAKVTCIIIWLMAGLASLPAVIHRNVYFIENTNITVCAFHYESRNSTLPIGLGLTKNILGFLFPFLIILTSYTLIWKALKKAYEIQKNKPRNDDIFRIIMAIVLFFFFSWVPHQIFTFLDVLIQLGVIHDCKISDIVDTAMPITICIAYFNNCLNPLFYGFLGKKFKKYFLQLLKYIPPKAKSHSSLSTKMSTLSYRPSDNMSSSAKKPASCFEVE
# T1 sequence (P35351 whole entry): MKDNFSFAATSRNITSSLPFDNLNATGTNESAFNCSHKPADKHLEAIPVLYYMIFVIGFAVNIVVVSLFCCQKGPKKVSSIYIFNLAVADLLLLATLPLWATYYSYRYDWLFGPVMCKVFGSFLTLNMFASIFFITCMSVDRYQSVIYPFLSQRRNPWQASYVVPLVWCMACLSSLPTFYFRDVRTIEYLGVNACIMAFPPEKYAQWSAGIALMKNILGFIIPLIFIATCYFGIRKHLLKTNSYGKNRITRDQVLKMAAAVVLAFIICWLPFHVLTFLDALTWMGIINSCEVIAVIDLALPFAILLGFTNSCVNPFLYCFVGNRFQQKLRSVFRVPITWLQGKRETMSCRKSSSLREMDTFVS
# Oryctolagus cuniculus = species: Oryctolagus cuniculus; assay: Evaluated for antagonism of AII contracted rabbit aortic rings; type: functional; conditions: Aorta, read-out: pA2 (converted)
Structure (SMILES),IC50 (Angiotensin II receptor) [nM],Kb (Oryctolagus cuniculus) [nM]
CCCCc1nc(CCCC)n(Cc2ccc(-c3cnccc3-c3nn[nH]n3)cc2)n1,150,63.1
CCCCc1nc(CCCC)n(Cc2ccc(-c3cccnc3-c3nn[nH]n3)cc2)n1,110,126
CCCCc1nc(CCCC)n(Cc2ccc(-c3ncccc3-c3nn[nH]n3)cc2)n1,98,158
CCCCc1nc(CCCC)n(Cc2ccc(-c3ccncc3-c3nn[nH]n3)cc2)n1,250,
CCCCc1nc(CCCC)n(Cc2ccc(-c3ccccc3-c3nn[nH]n3)cn2)n1,,10
